Test results from patent US20150104868A1, “Methods of Maintaining and Improving Biological Cell Function and Activity” (GARGILL INCORPORATED, priority 2012, published 2015).

Test system: CRL 1730 HUVECs
Assay: Microarray transcriptomics of HUVEC (HGERT/HG, HG/NG)
Type: cell-based, human
[1] = Atherosclerosis, ATP binding and metabolism
[2] = Atherosclerosis, Cysteine/gluathione
[3] = Atherosclerosis, Cytokine activity
[4] = Atherosclerosis, Endothelial cell related
[5] = Atherosclerosis, Heat shock protein
[6] = Atherosclerosis, NF-kappaB transcription
[7] = Atherosclerosis, Nitric oxide synthase activity
[8] = Atherosclerosis, Peptidase activity
[9] = Atherosclerosis, Plasminogen activators
[10] = Atherosclerosis, Reactive oxygen species

SMILES: OC[C@@H](O)[C@@H](O)CO [ERT, meso-1,2,3,4-tetrahydroxybutane]
- HGERT/HG ABCB10 (ATP-binding cassette, sub-family B (MDR/TAP), member 10) [1]: 0.98 Ω
- HGERT/HG ACTL6A (Actin-like 6A) [1]: 0.98 Ω
- HGERT/HG ACTR5 (ARP5 actin-related protein 5 homolog (yeast)) [1]: Ψ 1.01
- HGERT/HG ATAD1 (ATPase family, AAA domain containing 1) [1]: 0.99 Ω
- HGERT/HG ATAD3B (ATPase family, AAA domain containing 3B) [1]: Ψ 1.01
- HGERT/HG ATP2C1 (ATPase, Ca++ transporting, type 2C, member 1) [1]: 0.99 Ω
- HGERT/HG ATP5E (ATP synthase, H+ transporting, mitochondrial F1 complex, epsilon subunit) [1]: 0.98 Ω
- HGERT/HG ATP5O (ATP synthase, H+ transporting, mitochondrial Fl complex, O subunit) [1]: 1.00 Ω
- HGERT/HG ATP13A1 (ATPase type 13A1) [1]: Ψ 1.02
- HGERT/HG C3orf26 (Chromosome 3 open reading frame 26) [1]: 0.99 Ω
- HGERT/HG CARS (Cysteinyl-tRNA synthetase) [1]: 1.00 Ω
- HGERT/HG CSNK1G1 (Casein kinase 1, gamma 1) [1]: Ψ 1.02
- HGERT/HG DCAKD (Dephospho-CoA kinase domain containing) [1]: Ψ 1.03
- HGERT/HG DDX54 (DEAD (Asp-Glu-Ala-Asp) box, polypeptide 54) [1]: 0.99 Ω
- HGERT/HG FASTKD1 (FAST kinase domains 1) [1]: 0.99 Ω
- HGERT/HG FASTKD3 (FAST kinase domains 3) [1]: 0.99 Ω
- HGERT/HG HLTF (Helicase-like transcription factor) [1]: 0.99 Ω
- HGERT/HG HSPE1 (Heat shock 10kDa protein 1 (chaperonin 10)) [1]: 0.99 Ω
- HGERT/HG KIF1B (Kinesin family member 1B) [1]: Ψ 1.01
- HGERT/HG LIMK1 (LIM domain kinase 1) [1]: Ψ 1.01
- HGERT/HG LVN (V-yes-1 Yamaguchi sarcoma viral related oncogene homolog) [1]: Ψ 1.02
- HGERT/HG MAP4K3 (Mitogen-activated protein kinase kinase kinase kinase 3) [1]: 0.98 Ω
- HGERT/HG MARK2 (MAP/microtubule affinity-regulating kinase 2) [1]: Ψ 1.03
- HGERT/HG RP2 (Retinitis pigmentosa 2 (X-linked recessive)) [1]: 0.99 Ω
- HGERT/HG RPS6KA2 (Ribosomal protein S6 kinase, 90kDa, polypeptide 2) [1]: Ψ 1.01
- HGERT/HG SLK (STE20-like kinase) [1]: 0.99 Ω
- HGERT/HG STK39 (Serine threonine kinase 39) [1]: 0.98 Ω
- HGERT/HG SUCLA2 (Succinate-CoA ligase, ADP-forming, beta subunit) [1]: 0.99 Ω
- HGERT/HG TRIT1 (TRNA isopentenyltransferase 1) [1]: 0.98 Ω
- HGERT/HG VPS4B (Vacuolar protein sorting 4 homolog B (S. cerevisiae)) [1]: 0.99 Ω
- HGERT/HG YME1L1 (YME1-like 1 (S. cerevisiae)) [1]: 1.00 Ω
- HGERT/HG CORO1A (Coronin, actin binding protein, 1A) (Atherosclerosis, Actin binding): 0.94 Ω
- HGERT/HG PLEC1 (Plectin) (Atherosclerosis, Actin binding): Ψ 1.03
- HGERT/HG AHCYL1 (Adenosylhomocysteinase-like 1) [2]: Ψ 1.01
- HGERT/HG ATIC (5-aminoimidazole-4-carboxamide ribonucleotide formyltransferase/IMP cyclohydrolase) [2]: 0.99 Ω
- HGERT/HG ESD (Esterase D) [2]: 0.99 Ω
- HGERT/HG BMP6 (Bone morphogenetic protein 6) [3]: Ψ 1.01
- HGERT/HG IL13RA1 (Interleukin 13 receptor, alpha 1) [3]: Ψ 1.02
- HGERT/HG IL17D (Interleukin 17D) [3]: 0.98 Ω
- HGERT/HG ENG (Endoglin) [4]: Ψ 1.01
- HGERT/HG FOXC1 (Forkhead box C1) [4]: Ψ 1.01
- HGERT/HG GPR124 (G protein-coupled receptor 124) [4]: Ψ 1.02
- HGERT/HG HIG2 (Chromosome 7 open reading frame 68) [4]: Ψ 1.01
- HGERT/HG JUP (Junction plakoglobin) [4]: Ψ 1.01
- HGERT/HG KRIT1 (KRIT1, ankyrin repeat containing) [4]: 0.99 Ω
- HGERT/HG NOTCH1 (Notch 1) [4]: Ψ 1.02
- HGERT/HG JUP (Junction plakoglobin) (Atherosclerosis, Endothelial cell-cell adhesion): Ψ 1.01
- HGERT/HG DNAJC8 (DnaJ (Hsp40) homolog, subfamily C, member 8) [5]: 0.99 Ω
- HGERT/HG DNAJC11 (DnaJ (Hsp40) homolog, subfamily C, member 11) [5]: Ψ 1.01
- HGERT/HG COMMD7 (COMM domain containing 7) [6]: 0.99 Ω
- HGERT/HG NDFIP2 (Nedd4 family interacting protein 2) [6]: 0.99 Ω
- HGERT/HG PTPLAD1 (Protein tyrosine phosphatase-like A domain containing 1) [6]: Ψ 1.01
- HGERT/HG TP53BP2 (Tumor protein p53 binding protein, 2) [6]: Ψ 1.01
- HGERT/HG ACVR2A (Activin A receptor, type IIA) [7]: 0.99 Ω
- HGERT/HG ENG (Endoglin) [7]: Ψ 1.01
- HGERT/HG HIG2 (Chromosome 7 open reading frame 68) [7]: Ψ 1.01
- HGERT/HG OSTM1 (Osteopetrosis associated transmembrane protein 1) (Atherosclerosis, Osteoclast differentiation): 0.99 Ω
- HGERT/HG ATXN3 (Ataxin 3) [8]: 0.99 Ω
- HGERT/HG OTUD5 (OTU domain containing 5) [8]: Ψ 1.01
- HGERT/HG SENP3 (SUMO1/sentrin/SMT3 specific peptidase 3) [8]: Ψ 1.01
- HGERT/HG WFDC12 (WAP four-disulfide core domain 12) [8]: 0.96 Ω
- HGERT/HG PLSCR4 (Phospholipid scramblase 4) (Atherosclerosis, Phospholipid scramblase): 0.99 Ω
- HGERT/HG BRD2 (Bromodomain containing 2) [9]: Ψ 1.02
- HGERT/HG RHOJ (Ras homolog gene family, member J) [9]: Ψ 1.02
- HGERT/HG COX8A (Cytochrome c oxidase subunit VIIIA (ubiquitous)) [10]: 0.99 Ω
- HGERT/HG JUP (Junction plakoglobin) [10]: Ψ 1.01
- HGERT/HG MPHOSPH6 (M-phase phosphoprotein 6) [10]: 0.99 Ω
- HGERT/HG SDHD (Succinate dehydrogenase complex, subunit D, integral membrane protein) [10]: 0.98 Ω
- HGERT/HG SMOX (Spermine oxidase) [10]: 0.99 Ω
- HGERT/HG SOS1 (Son of sevenless homolog 1 (Drosophila)) [10]: Ψ 1.06
- HGERT/HG TCF12 (Transcription factor 12) [10]: 0.99 Ω
- HGERT/HG TGM2 (Transglutaminase 2 (C polypeptide, protein-glutamine-gamma-glutamyltransferase)) [10]: Ψ 1.01
- HGERT/HG PGRMC2 (Progesterone receptor membrane component 2) (Atherosclerosis, Steroid hormone receptor activity): 0.98 Ω
- HGERT/HG ABCB10 (ATP-binding cassette, sub-family B (MDR/TAP), member 10) (Breast cancer, ATP metabolism): 0.98 Ω
- HGERT/HG ACTL6A (Actin like 6A) (Breast cancer, ATP metabolism): 0.98 Ω
- HGERT/HG ACTR5 (ARP5 actin-related protein 5 homolog (yeast)) (Breast cancer, ATP metabolism): Ψ 1.01
- HGERT/HG ATAD1 (ATPase family, AAA domain containing 1) (Breast cancer, ATP metabolism): 0.99 Ω
- HGERT/HG ATAD38 (ATPase family, AAA domain containing 38) (Breast cancer, ATP metabolism): Ψ 1.01
- HGERT/HG ATP2C1 (ATPase, Ca++ transporting, type 2C, member 1) (Breast cancer, ATP metabolism): 0.99 Ω
- HGERT/HG ATP5E (ATP synthase, H+ transporting, mitochondrial F1 complex, epsilon subunit) (Breast cancer, ATP metabolism): 0.99 Ω
- HGERT/HG ATP5O (ATP synthase, H+ transporting, mitochondrial F1 complex, O subunite) (Breast cancer, ATP metabolism): Ψ 1.00
- HGERT/HG ATP13A1 (ATPase type 13A1) (Breast cancer, ATP metabolism): Ψ 1.02
- HGERT/HG C3orf26 (Chromosome 3 open reading frame 26) (Breast cancer, ATP metabolism): 0.99 Ω
- HGERT/HG CARS (Cysteinyl-tRNA synthetase) (Breast cancer, ATP metabolism): 1.00 Ω
- HGERT/HG CSNK1G1 (Casein kinase 1, gamma 1) (Breast cancer, ATP metabolism): Ψ 1.02
- HGERT/HG DCAKO (Dephospho-CoA kinase domain containing) (Breast cancer, ATP metabolism): Ψ 1.03
- HGERT/HG DDX54 (DEAD (Asp-Glu-Ala-Asp) box, polypeptide 54) (Breast cancer, ATP metabolism): 0.99 Ω
- HGERT/HG FASTDK1 (FAST kinase domains 1) (Breast cancer, ATP metabolism): 0.99 Ω
- HGERT/HG FASTKD3 (FAST kinase domains 1) (Breast cancer, ATP metabolism): 0.99 Ω
- HGERT/HG HLTF (Helicase-like transcription factor) (Breast cancer, ATP metabolism): 0.99 Ω
- HGERT/HG HSPE1 (Heat shock 10kDa protein 1 (chaperonin 10)) (Breast cancer, ATP metabolism): 0.99 Ω
- HGERT/HG KF1B (Kinesin family member 1B) (Breast cancer, ATP metabolism): Ψ 1.01
- HGERT/HG LIMK1 (LIM domain kinase 1) (Breast cancer, ATP metabolism): Ψ 1.01
- HGERT/HG LYN (V-yes-1 Yamaguchi sarcoma viral related oncogene homolog) (Breast cancer, ATP metabolism): Ψ 1.02
- HGERT/HG MAP4K3 (Mitogen-activated protein kinase kinase kinase kinase 3) (Breast cancer, ATP metabolism): 0.98 Ω
- HGERT/HG RP2 (Retinitis pigmentosa 2 (X-linked recessive)) (Breast cancer, ATP metabolism): 0.98 Ω
- HGERT/HG SLK (STE20-like kinase) (Breast cancer, ATP metabolism): 0.99 Ω
- HGERT/HG STK39 (Serine threonine kinase 39) (Breast cancer, ATP metabolism): 0.98 Ω
- HGERT/HG SUCLA2 (Succinate-CoA ligase, ADP-forming, beta subunit) (Breast cancer, ATP metabolism): 0.99 Ω
